The record followed here is patent US20130065792A1, “INDUCIBLE EXPRESSION OF SGLT5, METHODS AND KITS USING THE SAME” (BOEHRINGER INGELHEIM INTERNATIONAL GMBH, priority 2011, published 2013).

Data set [1] has as its target T1, SGLT5 (Homo sapiens, UniProt A0PJK1).
T1 construct: expressed in transfected cells; host or cells: T-Rex 293 cells (Invitrogen), stably transfected with pT-Rex-Dest30-hSGLT5; expression induced with tetracycline; deposited clone DSM ACC3096
T1 sequence (A0PJK1 1-596): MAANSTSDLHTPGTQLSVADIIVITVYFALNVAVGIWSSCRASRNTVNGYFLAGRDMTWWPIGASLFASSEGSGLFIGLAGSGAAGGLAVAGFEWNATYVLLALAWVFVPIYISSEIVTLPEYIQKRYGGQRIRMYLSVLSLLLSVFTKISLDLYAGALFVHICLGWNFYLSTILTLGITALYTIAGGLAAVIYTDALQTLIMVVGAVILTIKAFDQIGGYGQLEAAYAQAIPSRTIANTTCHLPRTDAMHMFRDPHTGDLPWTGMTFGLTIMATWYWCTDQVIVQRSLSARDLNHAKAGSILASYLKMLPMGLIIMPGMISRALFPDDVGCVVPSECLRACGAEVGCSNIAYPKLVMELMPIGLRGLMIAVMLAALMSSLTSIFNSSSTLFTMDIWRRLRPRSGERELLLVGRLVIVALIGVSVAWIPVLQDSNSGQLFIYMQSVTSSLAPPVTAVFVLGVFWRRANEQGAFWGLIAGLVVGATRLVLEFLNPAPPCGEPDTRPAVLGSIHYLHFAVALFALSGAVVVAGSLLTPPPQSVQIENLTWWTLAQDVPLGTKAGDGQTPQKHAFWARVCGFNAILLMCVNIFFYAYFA
The experiment in a line: Km-determination for mannose, fructose and AMG uptake by T-Rex 293-hSGLT5 cells. The following applies: for Km: specific (sodium dependent) uptake of [14C]-sugar, 4 h, T-Rex 293-hSGLT5 cells, three assays in parallel, read-out: Affinity for SGLT5 (Km). The data set is classed as cell-based. As for the experimental part: (§1) [^14C]-monosaccharide uptake inhibition experiments: Stable cell lines overexpressing human SGLT-5 were used for the sodium-dependent monosaccharide transport inhibition assay. Cells were pre-incubated in 200 μl uptake buffer (10 mM HEPES, 137 mM NaCl, 5.4 mM KCl, 2.8 mM CaCl2, 1.2 mM MgCl2, 50 μg/ml Gentamycin, 0.1% BSA) for 25 minutes at 37° C. 10 μM Cytochalasin B and test compound was added at different concentrations 15 minutes before the initiation of the uptake experiment.
(§2) The uptake reaction was started by the addition of 0.6 μCi [^14C]-labelled monosaccharide i.e. [^14C]-labeled alpha-methyl glucopyranoside (AMG), glucose, fructose, mannose or myo-inositol, in 0.1 mM AMG (or the respective non-radioactive monosaccharide).
After incubation for 60 minutes at 37° C., the cells were washed three times with 300 μl PBS (Cambrex, Verviers, Belgium) and then lysed in 0.1 N NaOH with intermittent shaking for 5 minutes. The lysate was mixed with 200 μl MicroScint 40 and shaken for 15 minutes and counted for radioactivity in the TopCount NXT (Canberra Packard, Schwadorf, Austria). The cells were pre-incubated in pre-treatment buffer (uptake buffer containing choline chloride instead of sodium chloride) for 25 minutes prior to addition of uptake buffer.
Km-determination for mannose, fructose and Alpha-Methylglucose (AMG) uptake by SGLT5: The uptake of Mannose, Fructose and AMG was assayed as described under “[^14C]-monosaccharide uptake inhibition experiments” in the absence (nonspecific uptake) or presence of sodium (Total uptake) in the buffer at different concentrations of the respective monosaccharide for 4 h. From the difference of Total uptake and Nonspecific uptake the Specific uptake was calculated and the Km was determined using the Program Graph Pad Prism (LaJolla, Calif., USA).
(§3) The measured affinity curves measured in three assays run in parallel are shown in FIG. 4A (for mannose), 4B (for fructose) and 4C (for AMG).

Data set [2] deals with T1, SGLT5. Put plainly: Time dependent specific uptake of [14C]-monosaccharides by T-Rex 293-hSGLT5 cells (FIG. 3). Format: cell-based. The following applies: 1 mM monosaccharide, 5-60 min, tetracycline induced T-Rex 293-hSGLT5 cells. As for the experimental part: [^14C]-saccharide uptake experiments: 30000 cells per well were seeded in white poly-D-lysine-coated 96-well plates and incubated over night. The expression of hSGLT5 was induced 24 h before the start of uptake experiments by the addition of 1 μg/ml tetracycline to the cells. For the assay, cells were washed twice with 250 μl pre-treatment buffer [140 mM cholinchloride in basal buffer (10 mM HEPES; 5.4 mM KCl; 2.8 mM CaCl2*2 H2O; 1.2 mM MgSO4*7 H2O; 0.1% BSA, pH 7.4) and incubated in 200 μl pre-treatment buffer for 25 min at 37° C. Pre-treatment buffer was removed and 200 μl uptake buffer was added to the cells (140 mM NaCl in basal buffer containing 1 mM cold monosaccharide [either glucose, fructose, mannose, galactose or alphamethyl glucopyranoside (AMG), respectively]+0,6 μCi [^14C]-labelled monosaccharide [either glucose, fructose, mannose, galactose or alpha-methyl glucopyranoside (AMG), respectively] (Hartmann Analytics, Mannheim, Germany) and 10 μM Cytochalasin B. After incubation for 5, 10, 30 and 60 minutes at 37° C., the cells were washed three times with 300 μl PBS (Cambrex, Verviers, Belgium) and then lysed in 0.1 N NaOH with intermittent shaking for 5 min. The lysate was mixed with 200 μl MikroScint 40 Scintillator, shaken for 15 min and counted for radioactivity in the TopCount NXT (Canberra Packard, Schwadorf, Austria). Specific sugar uptake was determined by subtracting non-specific uptake of each sugar (in the presence of choline chloride) from total uptake of the same sugar (in the presence of sodium chloride).
Furthermore, a protocol was established to measure the specific uptake of monosaccharides e.g. mannose, fructose, glucose, AMG and galactose by hSGLT5, It could be shown that the transporter takes up mannose and fructose with high affinity and hardly transports glucose, AMG and galactose (FIG. 3). […] Specific uptake was calculated by subtracting the respective monosaccharide uptake in the presence of choline chloride from the total uptake of the same monosaccharide in the presence of sodium chloride.

In data set [3] the target is T1, SGLT5. Put plainly: [14C]-monosaccharide uptake inhibition assay, [14C]-mannose as substrate, stable cell lines overexpressing human SGLT-5. Format: cell-based. The following applies: for IC50 / pIC50 ± SEM for inhibition of hSGLT-5: [14C]-mannose as substrate. The protocol: [^14C]-monosaccharide uptake inhibition experiments: Stable cell lines overexpressing human SGLT-5 were used for the sodium-dependent monosaccharide transport inhibition assay. […] The uptake reaction was started by the addition of 0.6 μCi [^14C]-labelled monosaccharide i.e. [^14C]-labeled alpha-methyl glucopyranoside (AMG), glucose, fructose, mannose or myo-inositol, in 0.1 mM AMG (or the respective non-radioactive monosaccharide). After incubation for 60 minutes at 37° C., the cells were washed three times with 300 μl PBS (Cambrex, Verviers, Belgium) and then lysed in 0.1 N NaOH with intermittent shaking for 5 minutes. The lysate was mixed with 200 μl MicroScint 40 and shaken for 15 minutes and counted for radioactivity in the TopCount NXT (Canberra Packard, Schwadorf, Austria). The cells were pre-incubated in pre-treatment buffer (uptake buffer containing choline chloride instead of sodium chloride) for 25 minutes prior to addition of uptake buffer. A dose-response curve was fitted to an empirical four-parameter model using XL Fit (IDBS, Guildford, UK) to determine the inhibitor concentration at half-maximal response (IC50). Human SGLT-5 was identified to be a mannose transporter and the inhibition of hSGLT-5 was assessed by a newly established [^14C]-mannose uptake assay.

Substrate in data set [4]: O=C(CO)[C@@H](O)[C@H](O)[C@H](O)CO
The experiment in a line: Km-determination for mannose, fructose and AMG uptake by T-Rex 293-hSGLT5 cells. The data set is classed as cell-based, human. The following applies: other: specific (sodium dependent) uptake of [14C]-sugar, 4 h, three assays in parallel, 37.0 °C. The protocol: as §1, §2
After incubation for 60 minutes at 37° C., the cells were washed three times with 300 μl PBS (Cambrex, Verviers, Belgium) and then lysed in 0.1 N NaOH with intermittent shaking for 5 minutes. The lysate was mixed with 200 μl MicroScint 40 and shaken for 15 minutes and counted for radioactivity in the TopCount NXT (Canberra Packard, Schwadorf, Austria). […]
as §3

Setting [5] is: 60 minutes at 37° C., at least three independent experiments, read-out: Mean IC50 for inhibition of hSGLT-5.

Where two headings read alike, the source gives them in different places.

Regarding `COC1OC(CO)C(O)C(O)C1O` (stereo not drawn) [AMG, alpha-methyl glucopyranoside], at SGLT5 [1] (ratio of Km values), the “Km fold higher than the Km for fructose” value is listed as “at least 5 fold” and the “Km fold higher than the Km for mannose” value is “at least 33 fold”. Besides, on SGLT5 [1], the Km (commonly the substrate concentration at which the rate is half of its maximum) was determined as 10.1 mM. In addition, the “specific uptake / affinity for hSGLT5 (in words)” value on SGLT5 [2] is reported as “very low affinity”.

Regarding `COc1ccc(Cc2ccccc2O[C@@H]2O[C@H](CO)[C@@H](O)[C@H](O)[C@H]2O)cc1` [Sergliflozin], the IC50 at SGLT5 [3] (setting [5]) came to 1100 nM. At SGLT5 [3] (given with negative sign), this molecule gave a pIC50 ± SEM for inhibition of hSGLT-5 of 5.95.

Regarding `O=C(CCc1ccc(O)cc1)c1c(O)cc(O)cc1O[C@@H]1O[C@H](CO)[C@@H](O)[C@H](O)[C@H]1O` [Phlorizin], the IC50 on SGLT5 [3] (setting [5]) is 1500 nM.

For `O=C(CO)[C@@H](O)[C@H](O)[C@H](O)CO` [Fructose], the “Km fold higher than the Km for mannose” value at SGLT5 [1] (ratio of Km values) was determined as 6.67 fold. For the same molecule, the Km at SGLT5 [1] was ≤ 2 mM. Further, the “specific uptake / affinity for hSGLT5 (in words)” value at SGLT5 [2] is reported as “high affinity”.

Consider `OC[C@H]1O[C@@H](c2ccc(Cl)c(Cc3ccc(O[C@H]4CCOC4)cc3)c2)[C@H](O)[C@@H](O)[C@@H]1O` [Compound A, D-glucitol, 1,5-anhydro-1-C-[4-chloro-3-[[4-[[(3S)-tetrahydro-3-furanyl]oxy]phenyl]methyl]phenyl]-, (1S)-], for which the IC50 is 1100 nM on SGLT5 [3] (setting [5]) and 1050 nM on SGLT5 [3] (given with negative sign, read-out: pIC50 ± SEM for inhibition of hSGLT-5 (converted)).

Turning to `OC[C@H]1O[C@@H](c2ccc(F)c(Cc3cc4ccccc4s3)c2)[C@H](O)[C@@H](O)[C@@H]1O` [ASP-1941], the IC50 on SGLT5 [3] (setting [5]) was 740 nM.

For the molecule `Cc1cc(O)c(C(=O)CCc2ccc3occc3c2)c(O[C@@H]2O[C@H](CO)[C@@H](O)[C@H](O)[C@H]2O)c1` [Compound T1095A], on SGLT5 [3] (setting [5]), the IC50 is 1100 nM. On SGLT5 [3] (given with negative sign), this molecule showed a pIC50 ± SEM for inhibition of hSGLT-5 of 5.97 ± 0.19.

In the case of `Cc1c(Cc2ccc(OC(C)C)cc2)c(O[C@@H]2O[C@H](CO)[C@@H](O)[C@H](O)[C@H]2O)nn1C(C)C` [Remogliflozin], the “selectivity over SGLT-2” value at SGLT5 [3] (SGLT-5 versus SGLT-2) is < 15 fold. The IC50 at SGLT5 [3] (setting [5]) stood at 190 nM.

For `CCOc1ccc(Cc2cc([C@@H]3O[C@H](CO)[C@@H](O)[C@H](O)[C@H]3O)ccc2Cl)cc1` [Dapagliflozin], on SGLT5 [3] (setting [5]), the IC50 worked out at 820 nM.

On to `Cc1ccc([C@@H]2O[C@H](CO)[C@@H](O)[C@H](O)[C@H]2O)cc1Cc1ccc(-c2ccc(F)cc2)s1` [Canagliflozin], for which, at SGLT5 [3] (setting [5]), the IC50 was found to be 1700 nM. Moreover, the pIC50 ± SEM for inhibition of hSGLT-5 at SGLT5 [3] (given with negative sign) worked out at 5.77 ± 0.12.

B1: SGLT5 (Homo sapiens) (protein)
chain: T1 sequence (A0PJK1 1-596)
notes: expressed in transfected cells; host or cells: T-Rex 293 cells (Invitrogen), stably transfected with pT-Rex-Dest30-hSGLT5; expression induced with tetracycline; deposited clone DSM ACC3096
Take B1: the Km in data set [4] was determined as 2.0 mM.
